Data: US12281057B2 (VERTEX PHARMACEUTICALS INCORPORATED, priority 2017, dated 2025)
Like-named read-outs stand apart in the source and are kept apart here.

Target: truncated form of human NaV 1.8 with full channel activity (Homo sapiens, UniProt Q9Y5Y9)
Test: E-VIPR Assay Method A for detecting and measuring Nav inhibition (HEK cells, membrane potential FRET dyes, electrical stimulation)
Type: cell-based
Conditions: HEK cells expressing human NaV 1.8, HS (human serum) in compound loading buffer, 11 point dose response, top dose 3 μM
From the text: E-VIPR Assay Method A for Detecting and Measuring Nav Inhibition Properties Sodium ion channels are voltage-dependent proteins that can be activated by inducing membrane voltage changes by applying electric fields. The electrical stimulation instrument and methods of use, referred to as E-VIPR, are described in International Publication No. WO 2002/008748 A3 and C.-J. Huang et al. Characterization of voltage-gated sodium channel blockers by electrical stimulation and fluorescence detection of membrane potential, 24 Nature Biotech. 439-46 (2006), both of which are incorporated by reference in their entirety. The instrument comprises a microtiter plate handler, an optical system for exciting the coumarin dye while simultaneously recording the coumarin and oxonol emissions, a waveform generator, a current- or voltage-controlled amplifier, and parallel electrode pairs that are inserted into assay plate wells. Under integrated computer control, this instrument passes user-programmed electrical stimulus protocols to cells within the wells of the microtiter plate. […] Sigma #F4135), 1% NEAA (Non-Essential Amino Acids, Life Tech #11140), 1% HEPES (Life Tech #15630), 1% Pen-Strep (Penicillin-Streptomycin; […] Cells were expanded in vented cap flasks, with 95% humidity and 5% CO2. Reagents and Stock Solutions: • 100 mg/mL Pluronic F-127 (Sigma #P2443), in dry DMSO • Compound Plates: […] 5% KIR 2.1 Bacmam virus (produced in-house), prepared as described in Section 3.3 of J. A. […] The solution was made by adding 10% Pluronic F127 stock equal to combined volumes of CC2-DMPE and DiSBAC6(3). The order of preparation was first mix Pluronic and CC2-DMPE, then add DiSBAC6(3), then while vortexing add Bath1/β-Cyclodextrin. […] Assay Protocol: […] Final DMSO concentration for all wells in the assay was 0.625% (0.75% DMSO was supplemented to the Compound Loading Buffer for a final DMSO concentration of 0.625%). […] 3) Cell plates were prepared. On the day of the assay, the media was aspirated, and the cells were washed three times with 80 μL of Bath-1 buffer, maintaining 25 μL residual volume in each well. 4) 25 μL per well of Hexyl Dye Solution was dispensed into the cell plates. The cells were incubated for 20 minutes at room temp or ambient conditions in darkness. 5) 80 μL per well of Compound Loading Buffer was dispensed into compound plates. 6) The cell plates were washed three times with 80 μL per well of Bath-1 Buffer, leaving 25 µL of residual volume. Then 25 uL per well from compound plate was transferred to each cell plate. The mixture was incubated for 30 minutes at room temp/ambient conditions. 7) The plate was read on E-VIPR using the current-controlled amplifier to deliver stimulation wave pulses using the following protocol: 1.25 Amps, 2.5 ms pulse width biphasic waveform, 10 Hz for 10 seconds at a scan rate of 200 Hz. A pre-stimulus recording was performed for 0.5 seconds to obtain the un-stimulated intensities baseline. The stimulatory waveform was followed by 0.5 seconds of post-stimulation recording to examine the relaxation to the resting state. Data Analysis: Data were analyzed and reported as normalized ratios of emission intensities measured in the 460 nm and 580 nm channels. The response as a function of time was reported as the ratios obtained using the following formula: […] The data were further reduced by calculating the initial (Ri) and final (Rf) ratios. These were the average ratio values during part or all of the pre-stimulation period and during sample points during the stimulation period. The fluorescence ratio (Rf/Ri) was then calculated and reported as a function of time. Control responses were obtained by performing assays in the presence of the positive control, and in the absence of pharmacological agents (DMSO vehicle negative control). Responses to the negative (N) and positive (P) controls were calculated as above. The compound antagonist % activity A was then defined as: [formula] where X is the ratio response of the test compound. […]

[1] = Table 20, read-out: Nav 1.8 MedChem Optical Assay EVIPR Assay Method A HS IC50
[2] = Table 20A, read-out: Nav 1.8 MedChem Optical Assay EVIPR Assay Method A HS IC50

Chain of truncated form of human NaV 1.8 with full channel activity (Q9Y5Y9 126-1722 limits assumed): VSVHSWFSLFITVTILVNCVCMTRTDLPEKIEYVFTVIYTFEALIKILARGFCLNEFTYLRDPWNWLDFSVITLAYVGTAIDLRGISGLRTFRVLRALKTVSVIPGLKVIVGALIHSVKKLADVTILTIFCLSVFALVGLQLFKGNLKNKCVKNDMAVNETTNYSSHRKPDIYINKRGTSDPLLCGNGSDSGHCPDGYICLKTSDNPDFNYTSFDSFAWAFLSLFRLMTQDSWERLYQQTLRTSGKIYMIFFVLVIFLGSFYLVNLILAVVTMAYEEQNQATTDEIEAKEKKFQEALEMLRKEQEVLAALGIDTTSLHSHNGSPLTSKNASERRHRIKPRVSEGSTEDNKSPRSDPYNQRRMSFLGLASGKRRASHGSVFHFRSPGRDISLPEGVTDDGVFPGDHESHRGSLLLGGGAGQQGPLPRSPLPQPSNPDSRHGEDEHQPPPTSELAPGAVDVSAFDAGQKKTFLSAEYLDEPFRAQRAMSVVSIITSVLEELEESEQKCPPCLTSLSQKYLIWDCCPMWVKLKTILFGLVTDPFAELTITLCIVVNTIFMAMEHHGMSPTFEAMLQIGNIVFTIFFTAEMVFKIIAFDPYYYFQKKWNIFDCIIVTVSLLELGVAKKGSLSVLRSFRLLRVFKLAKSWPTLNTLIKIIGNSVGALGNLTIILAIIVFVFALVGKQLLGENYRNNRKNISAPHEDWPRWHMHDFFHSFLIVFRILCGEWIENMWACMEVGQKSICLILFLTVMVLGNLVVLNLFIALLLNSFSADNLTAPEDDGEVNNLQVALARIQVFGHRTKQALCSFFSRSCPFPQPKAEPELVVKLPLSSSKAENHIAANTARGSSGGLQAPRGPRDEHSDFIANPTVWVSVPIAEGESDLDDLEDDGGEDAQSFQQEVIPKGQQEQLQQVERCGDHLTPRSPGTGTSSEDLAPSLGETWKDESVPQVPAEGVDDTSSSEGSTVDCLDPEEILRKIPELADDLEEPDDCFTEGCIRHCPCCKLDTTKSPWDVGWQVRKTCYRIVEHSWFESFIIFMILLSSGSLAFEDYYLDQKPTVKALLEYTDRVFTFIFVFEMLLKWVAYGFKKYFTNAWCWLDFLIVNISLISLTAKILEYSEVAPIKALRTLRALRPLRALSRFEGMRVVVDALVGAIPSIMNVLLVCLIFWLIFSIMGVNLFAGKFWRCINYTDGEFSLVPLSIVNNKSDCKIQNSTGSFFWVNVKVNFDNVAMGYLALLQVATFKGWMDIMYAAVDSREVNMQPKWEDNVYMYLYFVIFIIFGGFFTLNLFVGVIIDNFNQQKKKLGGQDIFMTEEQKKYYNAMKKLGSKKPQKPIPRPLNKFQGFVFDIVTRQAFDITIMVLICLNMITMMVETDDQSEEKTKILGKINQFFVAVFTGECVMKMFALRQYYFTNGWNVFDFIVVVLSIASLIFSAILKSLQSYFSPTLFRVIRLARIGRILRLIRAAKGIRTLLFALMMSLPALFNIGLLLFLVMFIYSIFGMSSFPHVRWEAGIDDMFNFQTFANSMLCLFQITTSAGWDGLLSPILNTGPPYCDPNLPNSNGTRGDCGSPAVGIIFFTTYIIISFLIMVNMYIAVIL

Row | SMILES | IC50 [1] | IC50 [2]
1 | COc1cc(OC(F)(F)F)ccc1Oc1ccc(Cl)c(F)c1C(=O)Nc1ccnc(C(N)=O)c1 [Compound 5, 4-[[3-chloro-2-fluoro-6-[2-methoxy-4-(trifluoromethoxy)phenoxy]benzoyl]amino]pyridine-2-carboxamide] | 2 nM | –
2 | COc1cc(OC(F)(F)F)ccc1Oc1cc([C@H]2C[C@@H]2C)ncc1C(=O)Nc1ccc(F)c(C(N)=O)c1 (single isomer, unassigned) [Compound 113] | – | 84 nM
3 | COc1cc(F)ccc1-c1cc(C(F)(F)F)ccc1C(=O)Nc1ccc(F)c(C(N)=O)c1 [Compound 162, N-(3-carbamoyl-4-fluoro-phenyl)-2-(4-fluoro-2-methoxy-phenyl)-4-(trifluoromethyl)benzamide] | – | 170 nM
4 | NC(=O)c1cc(NC(=O)c2c(Oc3ccc(OC(F)(F)F)cc3Cl)ccc(C(F)(F)F)c2F)ccn1 [Compound 51] | – | 9 nM
5 | Cc1cc(OC(F)(F)F)ccc1Oc1ccc(C(F)(F)F)c(F)c1C(=O)Nc1ccc(F)c(C(N)=O)c1 [Compound 10, N-(3-carbamoyl-4-fluoro-phenyl)-2-fluoro-6-[2-methyl-4-(trifluoromethoxy)phenoxy]-3-(trifluoromethyl)benzamide] | 3 nM | –
6 | [2H]C([2H])([2H])Oc1c(Oc2ccc(C(F)(F)F)c(F)c2C(=O)Nc2ccc(C(N)=O)nc2)ccc(OC(F)(F)F)c1F [Compound 221, 5-[[2-Fluoro-6-[3-fluoro-2-(trideuteriomethoxy)-4-(trifluoromethoxy)phenoxy]-3-(trifluoromethyl)benzoyl]amino]pyridine-2-carboxamide] | – | 14 nM
7 | [2H]C([2H])([2H])Oc1cc(OC(F)(F)F)ccc1Oc1ccc(C(F)(F)F)c(F)c1C(=O)Nc1ccc(F)c(C(N)=O)c1 [Compound 1, N-(3-carbamoyl-4-fluoro-phenyl)-2-fluoro-6-[2-(trideuteriomethoxy)-4-(trifluoromethoxy)phenoxy]-3-(trifluoromethyl)benzamide] | 0.7 nM | –
8 | COc1cc(OC(F)(F)F)ccc1Oc1ccc(C(F)(F)F)c(OC)c1C(=O)Nc1ccc(C(N)=O)cn1 [Compound 205, 6-[[2-Methoxy-6-[2-methoxy-4-(trifluoromethoxy)phenoxy]-3-(trifluoromethyl)benzoyl]amino]pyridine-3-carboxamide] | – | 150 nM
9 | NC(=O)c1cc(NC(=O)c2cc(F)c(C(F)(F)F)cc2Oc2ccc(OC(F)(F)F)cc2)ccn1 [Compound 76, 4-[[5-Fluoro-2-[4-(trifluoromethoxy)phenoxy]-4-(trifluoromethyl)benzoyl]amino]pyridine-2-carboxamide] | – | 350 nM
10 | [2H]C([2H])([2H])Oc1cc(OC(F)(F)F)ccc1Oc1ccc(C(F)(F)F)c(F)c1C(=O)Nc1cnc(C(N)=O)cc1C [Compound 161, 5-[[2-fluoro-6-[2-(trideuteriomethoxy)-4-(trifluoromethoxy)phenoxy]-3-(trifluoromethyl)benzoyl]amino]-4-methyl-pyridine-2-carboxamide] | – | 150 nM
11 | COc1cc(OC(F)(F)F)ccc1Oc1cc(C(F)(F)F)ncc1C(=O)Nc1ccc(OC)c(C(N)=O)c1 [Compound 239, N-(3-carbamoyl-4-methoxy-phenyl)-4-[2-methoxy-4-(trifluoromethoxy)phenoxy]-6-(trifluoromethyl)pyridine-3-carboxamide] | – | 2700 nM
12 | NC(=O)c1cc(NC(=O)c2c(Oc3ccc(OC(F)(F)F)cc3)ccc(C(F)(F)F)c2F)cc[n+]1[O-] [Compound 110, 4-[[2-Fluoro-6-[4-(trifluoromethoxy)phenoxy]-3-(trifluoromethyl)benzoyl]amino]-1-oxido-pyridin-1-ium-2-carboxamide] | – | 55 nM
13 | COc1cc(F)ccc1Oc1cc(Cl)cc(Cl)c1C(=O)Nc1ccc(C(N)=O)nc1 [Compound 182, 5-[[2,4-Dichloro-6-(4-fluoro-2-methoxy-phenoxy)benzoyl]amino]pyridine-2-carboxamide] | – | 410 nM
14 | [2H]C([2H])([2H])Oc1c(Oc2ccc(C(F)F)c(F)c2C(=O)Nc2cc(C(N)=O)ncc2C)ccc(OC(F)(F)F)c1F [Compound 237, 4-[[3-(Difluoromethyl)-2-fluoro-6-[3-fluoro-2-(trideuteriomethoxy)-4-(trifluoromethoxy)phenoxy]benzoyl]amino]-5-methyl-pyridine-2-carboxamide] | – | 12 nM
15 | COc1cc(OC(F)(F)F)ccc1Oc1cnc(C(F)(F)F)c(F)c1C(=O)Nc1ccc(F)c(C(N)=O)c1 [Compound 45, N-(3-carbamoyl-4-fluoro-phenyl)-3-fluoro-5-[2-methoxy-4-(trifluoromethoxy)phenoxy]-2-(trifluoromethyl)pyridine-4-carboxamide] | – | 1 nM
16 | COc1cc(OC(F)(F)F)ccc1Oc1ccc(Cl)cc1C(=O)Nc1cc(C(N)=O)ncc1C [Compound 150, 4-[[5-Chloro-2-[2-methoxy-4-(trifluoromethoxy)phenoxy]benzoyl]amino]-5-methyl-pyridine-2-carboxamide] | – | 290 nM
17 | CCOc1c(C(F)(F)F)ncc(Oc2ccc(OC(F)(F)F)cc2OC)c1C(=O)Nc1cc(C(N)=O)ncc1C [Compound 210, N-(2-Carbamoyl-5-methyl-4-pyridyl)-3-ethoxy-5-[2-methoxy-4-(trifluoromethoxy)phenoxy]-2-(trifluoromethyl)pyridine-4-carboxamide] | – | 140 nM
18 | COc1cc(OC(F)(F)F)ccc1Oc1cnc(C(F)(F)F)c(F)c1C(=O)Nc1ccc(C(N)=O)nc1 [Compound 194, N-(6-carbamoyl-3-pyridyl)-3-fluoro-5-[2-methoxy-4-(trifluoromethoxy)phenoxy]-2-(trifluoromethyl)pyridine-4-carboxamide] | – | 21 nM
19 | COc1cc(OC(F)(F)F)ccc1Oc1cc([C@@H]2C[C@H]2C)ncc1C(=O)Nc1ccnc(C(N)=O)c1 (single isomer, unassigned) [Compound 112] | – | 43 nM
20 | [2H]C([2H])([2H])Oc1c(Oc2ccc(C(F)F)c(F)c2C(=O)Nc2ccc(C(N)=O)nc2)ccc(OC(F)(F)F)c1F [Compound 236, 5-[[3-(Difluoromethyl)-2-fluoro-6-[3-fluoro-2-(trideuteriomethoxy)-4-(trifluoromethoxy)phenoxy]benzoyl]amino]pyridine-2-carboxamide] | – | 45 nM
21 | NC(=O)c1cc(NC(=O)c2c(Oc3ccc(OC(F)(F)F)cc3)ccc3c2CCC3(F)F)ccn1 [Compound 191, 4-[[1,1-Difluoro-5-[4-(trifluoromethoxy)phenoxy]indane-4-carbonyl]amino]pyridine-2-carboxamide] | – | 120 nM
22 | COc1cc(OC(F)(F)F)ccc1Oc1cnc(C(F)(F)F)c(OC)c1C(=O)Nc1ccc(C(N)=O)nc1 [Compound 203, N-(6-Carbamoyl-3-pyridyl)-3-methoxy-5-[2-methoxy-4-(trifluoromethoxy)phenoxy]-2-(trifluoromethyl)pyridine-4-carboxamide] | – | 46 nM
23 | COc1cc(OC(F)(F)F)ccc1Oc1cc(C(F)(F)F)c(F)cc1C(=O)Nc1ccc(F)c(C(N)=O)c1 [Compound 23, N-(3-carbamoyl-4-fluoro-phenyl)-5-fluoro-2-[2-methoxy-4-(trifluoromethoxy)phenoxy]-4-(trifluoromethyl)benzamide] | 14 nM | –
24 | NC(=O)c1cc(NC(=O)c2c(Oc3ccc(OC(F)(F)F)cc3)ccc(F)c2F)ccc1F [Compound 63, N-(3-Carbamoyl-4-fluoro-phenyl)-2,3-difluoro-6-[4-(trifluoromethoxy)phenoxy]benzamide] | – | 140 nM
